Measured values reported in ChEMBL document CHEMBL3885881, “DrugMatrix”.

Species: Rattus norvegicus
Test: DrugMatrix - Regimen: Daily Repeat
Type: toxicity, organism-based, Sprague-Dawley
Set-up: regimen Daily Repeat, gender Male, age 6-8 weeks
Details: in vivo, po, route oral GAVAGE, […]; for BASOPHIL / EOSINOPHIL / ERYTHROCYTE COUNT / HEMATOCRIT / HEMOGLOBIN / LEUKOCYTE COUNT / LYMPHOCYTE / MEAN CORPUSCULAR HEMOGLOBIN / MEAN CORPUSCULAR HEMOGLOBIN CONCENTRATION / MEAN CORPUSCULAR VOLUME / MONOCYTE / NEUTROPHIL / PLATELET COUNT / ABSOLUTE BASOPHIL / ABSOLUTE EOSINOPHIL / ABSOLUTE LYMPHOCYTE / ABSOLUTE MONOCYTE / ABSOLUTE SEGMENTED NEUTROPHIL / NUCLEATED RED BLOOD CELLS: tissue Blood; for ALANINE AMINOTRANSFERASE / ALBUMIN / ALKALINE PHOSPHATASE / ASPARTATE AMINOTRANSFERASE / BLOOD UREA NITROGEN / CHLORIDE / CHOLESTEROL / CREATINE PHOSPHOKINASE / CREATININE / GLUCOSE / PHOSPHORUS / POTASSIUM / SODIUM / TOTAL BILIRUBIN / TOTAL PROTEIN / CARBON DIOXIDE / LACTATE DEHYDROGENASE / LIPASE / URIC ACID: tissue Plasma
[1] = 0 mg/kg, 120 h, dose level Control, time 5 day
[2] = 0 mg/kg, dose level Control, time 28 day
[3] = 11 mg/kg, 72 h, dose level High, time 3 day
[4] = 11 mg/kg, 120 h, dose level High, time 5 day

O=[N+]([O-])c1cc([As](=O)(O)O)ccc1O [ROXARSONE]
BASOPHIL [1]: 0.32%
EOSINOPHIL [1]: 0.58%
ERYTHROCYTE COUNT [1]: 7.26 x10E6/uL
HEMATOCRIT [1]: 46.94%
HEMOGLOBIN [1]: 14.9 G/DL
LEUKOCYTE COUNT [1]: 8.69 x10E3/uL
LYMPHOCYTE [1]: 81.52%
MEAN CORPUSCULAR HEMOGLOBIN [1]: 20.58 pg
MEAN CORPUSCULAR HEMOGLOBIN CONCENTRATION [1]: 31.8 G/DL
MEAN CORPUSCULAR VOLUME [1]: 64.68 fL
MONOCYTE [1]: 2.16%
NEUTROPHIL [1]: 13.88%
PLATELET COUNT [1]: 1531.2 x10E3/uL
ALANINE AMINOTRANSFERASE [1]: 33.2 u/L
ALBUMIN [1]: 3.74 G/DL
ALKALINE PHOSPHATASE [1]: 318 u/L
ASPARTATE AMINOTRANSFERASE [1]: 78.6 u/L
BLOOD UREA NITROGEN [1]: 6 mg/dL
CHLORIDE [1]: 108.4 MEQ/L
CHOLESTEROL [1]: 63 mg/dL
CREATINE PHOSPHOKINASE [1]: 251 u/L
CREATININE [1]: 0.18 mg/dL
GLUCOSE [1]: 125.6 mg/dL
PHOSPHORUS [1]: 12.06 mg/dL
POTASSIUM [1]: 5.92 MEQ/L
SODIUM [1]: 146.8 MEQ/L
TOTAL BILIRUBIN [1]: 0.16 mg/dL
TOTAL PROTEIN [1]: 6.06 G/DL
BASOPHIL [2]: 0.42%
EOSINOPHIL [2]: 0.58%
ERYTHROCYTE COUNT [2]: 8.06 x10E6/uL
HEMATOCRIT [2]: 48.44%
HEMOGLOBIN [2]: 16.34 G/DL
LEUKOCYTE COUNT [2]: 13.04 x10E3/uL
LYMPHOCYTE [2]: 85.12%
MEAN CORPUSCULAR HEMOGLOBIN [2]: 20.26 pg
MEAN CORPUSCULAR HEMOGLOBIN CONCENTRATION [2]: 33.74 G/DL
MEAN CORPUSCULAR VOLUME [2]: 60.1 fL
MONOCYTE [2]: 1.44%
NEUTROPHIL [2]: 11.28%
PLATELET COUNT [2]: 1226 x10E3/uL
ALANINE AMINOTRANSFERASE [2]: 28.6 u/L
ALBUMIN [2]: 3.94 G/DL
ALKALINE PHOSPHATASE [2]: 254.6 u/L
ASPARTATE AMINOTRANSFERASE [2]: 67.8 u/L
BLOOD UREA NITROGEN [2]: 10.4 mg/dL
CHLORIDE [2]: 104.6 MEQ/L
CHOLESTEROL [2]: 57.6 mg/dL
CREATINE PHOSPHOKINASE [2]: 224.8 u/L
CREATININE [2]: 0.4 mg/dL
GLUCOSE [2]: 140.6 mg/dL
PHOSPHORUS [2]: 10.66 mg/dL
POTASSIUM [2]: 6.58 MEQ/L
SODIUM [2]: 148.6 MEQ/L
TOTAL BILIRUBIN [2]: 0.24 mg/dL
TOTAL PROTEIN [2]: 6.64 G/DL
ABSOLUTE BASOPHIL [3]: 0 CELLS/uL
ABSOLUTE EOSINOPHIL [3]: 38.67 CELLS/uL
ABSOLUTE LYMPHOCYTE [3]: 12107.67 CELLS/uL
ABSOLUTE MONOCYTE [3]: 206 CELLS/uL
ABSOLUTE SEGMENTED NEUTROPHIL [3]: 1247.67 CELLS/uL
BASOPHIL [3]: 0%
EOSINOPHIL [3]: 0.33%
ERYTHROCYTE COUNT [3]: 6.03 x10E6/uL
HEMATOCRIT [3]: 38.2%
HEMOGLOBIN [3]: 14.6 G/DL
LEUKOCYTE COUNT [3]: 13.6 x10E3/uL
LYMPHOCYTE [3]: 89%
MEAN CORPUSCULAR HEMOGLOBIN [3]: 24.2 pg
MEAN CORPUSCULAR HEMOGLOBIN CONCENTRATION [3]: 38.2 G/DL
MEAN CORPUSCULAR VOLUME [3]: 63.27 fL
MONOCYTE [3]: 1.67%
NEUTROPHIL [3]: 9%
NUCLEATED RED BLOOD CELLS [3]: 0 /100WBC
PLATELET COUNT [3]: 1141 x10E3/uL
ALANINE AMINOTRANSFERASE [3]: 88 u/L
ALBUMIN [3]: 3.93 G/DL
ALKALINE PHOSPHATASE [3]: 483.33 u/L
ASPARTATE AMINOTRANSFERASE [3]: 108 u/L
BLOOD UREA NITROGEN [3]: 10.67 mg/dL
CARBON DIOXIDE [3]: 29.33 mmol/L
CHLORIDE [3]: 100.67 MEQ/L
CHOLESTEROL [3]: 66.67 mg/dL
CREATINE PHOSPHOKINASE [3]: 464.67 u/L
CREATININE [3]: 0.15 mg/dL
GLUCOSE [3]: 142.67 mg/dL
LACTATE DEHYDROGENASE [3]: 448 u/L
LIPASE [3]: 11.67 u/L
PHOSPHORUS [3]: 11.03 mg/dL
POTASSIUM [3]: 6.34 MEQ/L
SODIUM [3]: 143.37 MEQ/L
TOTAL BILIRUBIN [3]: 0.2 mg/dL
TOTAL PROTEIN [3]: 5.6 G/DL
URIC ACID [3]: 1.6 mg/dL
ABSOLUTE BASOPHIL [4]: 0 CELLS/uL
ABSOLUTE EOSINOPHIL [4]: 0 CELLS/uL
ABSOLUTE LYMPHOCYTE [4]: 14104 CELLS/uL
ABSOLUTE MONOCYTE [4]: 363 CELLS/uL
ABSOLUTE SEGMENTED NEUTROPHIL [4]: 1099.67 CELLS/uL
NUCLEATED RED BLOOD CELLS [4]: 0 /100WBC
CARBON DIOXIDE [4]: 29.67 mmol/L
LACTATE DEHYDROGENASE [4]: 358.67 u/L
LIPASE [4]: 11.33 u/L
URIC ACID [4]: 1.37 mg/dL
